For 36 compounds, IC50 results are on record in patent publication US8324245B2, “Quinoline derivative and quinazoline derivative inhibiting self-phosphorylation of hepatocytus proliferator receptor, and medicinal composition containing the same” (Kyowa Hakko Kirin Co., Ltd., priority 2001, dated 2012).

T1 sequence (P08581 25-1390): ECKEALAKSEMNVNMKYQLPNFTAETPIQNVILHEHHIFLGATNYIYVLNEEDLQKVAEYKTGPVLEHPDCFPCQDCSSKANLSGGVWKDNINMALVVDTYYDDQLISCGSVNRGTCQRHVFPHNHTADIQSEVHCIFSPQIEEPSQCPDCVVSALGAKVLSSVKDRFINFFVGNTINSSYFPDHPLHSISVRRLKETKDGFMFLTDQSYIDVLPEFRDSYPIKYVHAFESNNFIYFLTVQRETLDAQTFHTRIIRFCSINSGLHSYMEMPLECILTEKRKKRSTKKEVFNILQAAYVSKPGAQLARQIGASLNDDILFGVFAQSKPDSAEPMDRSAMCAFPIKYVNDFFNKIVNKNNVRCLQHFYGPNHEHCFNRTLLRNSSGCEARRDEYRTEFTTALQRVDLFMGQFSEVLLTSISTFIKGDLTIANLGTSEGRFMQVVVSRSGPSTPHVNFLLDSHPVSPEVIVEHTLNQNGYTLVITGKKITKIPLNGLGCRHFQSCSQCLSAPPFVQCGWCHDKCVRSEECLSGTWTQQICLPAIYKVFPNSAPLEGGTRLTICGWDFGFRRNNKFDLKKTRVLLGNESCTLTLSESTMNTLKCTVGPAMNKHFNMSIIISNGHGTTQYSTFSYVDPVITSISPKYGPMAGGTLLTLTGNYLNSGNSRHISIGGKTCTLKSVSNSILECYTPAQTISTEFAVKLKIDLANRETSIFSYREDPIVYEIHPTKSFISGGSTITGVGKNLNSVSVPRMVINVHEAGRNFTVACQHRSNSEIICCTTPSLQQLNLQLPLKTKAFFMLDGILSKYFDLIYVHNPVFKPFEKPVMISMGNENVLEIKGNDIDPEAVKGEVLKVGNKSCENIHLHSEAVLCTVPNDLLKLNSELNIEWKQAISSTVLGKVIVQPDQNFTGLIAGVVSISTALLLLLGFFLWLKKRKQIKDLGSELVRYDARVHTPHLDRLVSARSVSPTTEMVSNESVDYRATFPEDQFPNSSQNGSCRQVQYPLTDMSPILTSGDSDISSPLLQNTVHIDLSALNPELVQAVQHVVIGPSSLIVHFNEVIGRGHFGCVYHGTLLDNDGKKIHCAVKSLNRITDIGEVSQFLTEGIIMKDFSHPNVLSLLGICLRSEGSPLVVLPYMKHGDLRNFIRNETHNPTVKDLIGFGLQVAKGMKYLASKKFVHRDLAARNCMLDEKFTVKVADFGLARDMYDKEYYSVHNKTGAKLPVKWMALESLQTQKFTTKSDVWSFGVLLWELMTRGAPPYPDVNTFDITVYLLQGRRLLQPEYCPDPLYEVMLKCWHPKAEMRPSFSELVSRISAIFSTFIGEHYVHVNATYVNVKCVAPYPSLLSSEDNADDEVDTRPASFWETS

This test addresses T1, met (HGF receptor) in human gastric cancer cells MKN45 (Homo sapiens, UniProt P08581).
T1 construct: endogenous in cells; host or cells: MKN45 human gastric cancer cells
Description: Inhibitory activity against met-autophosphorylation using ELISA method (2), MKN45 cells, HGF-independent. Type of test: cell-based. The method, boiled down: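 MKN45 cells, 3×10^4 per well in RPMI with 0.1% FCS overnight, were exposed to compound in DMSO for 1 h at 37 °C without HGF. Lysates were captured on anti-phosphotyrosine (PY20) plates, Met detected with anti-Met and peroxidase secondary antibody, absorbance at 450 nm.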
(ELISA stands for enzyme-linked immunosorbent assay.)
By IC50 is commonly meant the point on the concentration scale where inhibition reaches its midpoint. A high value points to weaker potency. For `COc1cc2c(Oc3ccc(NC(=S)NC(=O)Cc4ccccc4F)cc3Cl)ccnc2cc1OCCCN1CCOCC1` [Example 298, 1-{3-Chloro-4-[6-methoxy-7-(3-morpholin-4-yl-propoxy)-quinolin-4-yloxy]-phenyl}-3-[2-(2-fluoro-phenyl)-acetyl]-thiourea], the IC50 is 89 nM. As to `COc1cc2nccc(Oc3ccc(NC(=O)CC(=O)NC4CCCCCC4)cc3)c2cc1OC` [Example 101, N-cycloheptyl-N′-[4-(6,7-dimethoxyquinolin-4-yloxy)phenyl]malonamide], the IC50 came to 44.4 nM. The same measure for `COc1cc2nccc(Oc3ccc(NC(=O)CC(=O)Nc4ccc(F)cc4F)cc3)c2cc1OC` [Example 102, N-(2,4-difluorophenyl)-N′-[4-(6,7-dimethoxy-quinolin-4-yloxy)phenyl]malonamide]: 91.8 nM; for `COc1cc2c(Oc3ccc(NC(=S)NC(=O)Cc4cccc(F)c4)cc3F)ccnc2cc1OCCCN1CCOCC1` [Example 289]: 23.8 nM.

On to `COc1cc2nccc(Oc3ccc(NC(=O)NC(=O)Nc4ccccc4CCO)cc3)c2cc1OC` [Example 267, N-[2-(2-hydroxyethyl)phenyl]-({[4-(6,7-dimethoxyquinolin-4-yloxy)anilino]carbonyl}amino)-methanamide], for which the IC50 was determined as 109 nM.

As for `COc1cc2c(Oc3ccc(NC(=S)NC(=O)Cc4ccccc4)cc3F)ccnc2cc1OCCN1CCCN(C)CC1` [Example 273, 1-(3-Fluoro-4-{6-methoxy-7-[2-(4-methyl-[1,4]diazepan-1-yl)-ethoxy]-3-quinolin-4-yloxy}-phenyl)-3-phenylacetyl-thiourea], inhibition was half-maximal at 24 nM (IC50). Against the preceding compound, the IC50 is about 4.5-fold lower. The compound `COc1cc2nccc(Oc3ccc(NC(=O)CC(=O)Nc4cccc(Cl)c4)cc3)c2cc1OC` [Example 210, N-(3-chlorophenyl)-N′-[4-(6,7-dimethoxy-quinolin-4-yloxy)phenyl]malonamide] registered an IC50 of 228 nM. In the case of `COc1cc2c(Oc3ccc(NC(=S)NC(=O)Cc4ccc(F)cc4)cc3F)ccnc2cc1OCCCN1CCC(CO)CC1` [Example 310, 1-(3-Fluoro-4-{7-[3-(4-hydroxymethyl-piperidin-1-yl)-propoxy]-6-methoxy-quinolin-4-yloxy}-phenyl)-3-[2-(4-fluoro-phenyl)-acetyl]-thiourea], the IC50 is 21.1 nM.

On to `COc1cc2nccc(Oc3ccc(NC(=S)NC(=O)Cc4cccc(C)c4)cc3F)c2cc1OC` [Example 176, 1-[4-(6,7-dimethoxyquinolin-4-yloxy)-3-fluorophenyl]-3-(2-m-tolylacetyl)thiourea], for which the IC50 turned out to be 221 nM. `COc1cc2nccc(Oc3ccc(NC(=S)NC(=O)C4CCCC4)c(F)c3)c2cc1OC` [Example 143, 1-cyclopentanecarbonyl-3-[4-(6,7-dimethoxy-quinolin-4-yloxy)-2-fluorophenyl]thiourea] gave a half-inhibitory concentration (IC50) of 3590 nM. Compared with the last compound, the IC50 is about 16-fold higher. Turning to `COc1cc2nccc(Oc3ccc(NC(=O)NC(=O)Nc4ccc(Cl)cn4)cc3)c2cc1OC` [Example 231, N-(5-chloro-2-pyridyl)-({[4-(6,7-dimethoxy-quinolin-4-yloxy)anilino]carbonyl}amino)methanamide], it took 329 nM to reach half-maximal inhibition (IC50).

As for `COc1cc2nccc(Oc3ccc(NC(=O)NC(=O)Cc4ccccc4C(F)(F)F)c(F)c3)c2cc1OC` [Example 136, 1-[4-(6,7-dimethoxyquinolin-4-yloxy)-2-fluorophenyl]-3-[2-(2-trifluoromethylphenyl)acetyl]urea], the midpoint of inhibition, the IC50, lay at 342 nM. `COc1cc2nccc(Oc3ccc(NC(=S)NC(=O)Cc4ccccc4C)cc3)c2cc1OC` [Example 79, 1-[4-(6,7-dimethoxyquinolin-4-yloxy)phenyl]-3-(2-o-tolylacetyl)thiourea]: the half-inhibitory concentration (IC50) was determined as 145 nM. Against the preceding compound, the IC50 is about 2.4-fold lower. Compound `COc1cc2nccc(Oc3ccc(NC(=O)CC(=O)N(C)c4ccccc4)cc3)c2cc1OC` [Example 216, N-[4-(6,7-dimethoxyquinolin-4-yloxy)phenyl]-N′-methyl-N′-phenylmalonamide] displayed an IC50 of 228 nM. As to `COc1cc2nccc(Oc3ccc(NC(=S)NC(=O)Cc4cc(F)cc(F)c4)cc3F)c2cc1OC` [Example 197, 1-[2-(3,5-difluorophenyl)acetyl]-3-[4-(6,7-dimethoxyquinolin-4-yloxy)-3-fluorophenyl]thiourea], the IC50 came out at 284 nM.

`COc1cc2nccc(Oc3ccc(NC(=S)NC(=O)Cc4ccccc4)cc3Cl)c2cc1OC` [Example 63, 1-[3-chloro-4-(6,7-dimethoxyquinolin-4-yloxy)-phenyl]-3-phenylacetylthiourea] gave an IC50 of 24.4 nM. `COc1cc2c(Oc3ccc(NC(=O)NC(=O)Cc4ccccc4)cc3F)ccnc2cc1O` [Example 106, N-{3-Fluoro-4-[(7-hydroxy-6-methoxy-4-quinolyl)-oxy]phenyl}-N′-(2-phenylacetyl)urea] came in with an IC50 of 42.7 nM.

`COc1cc2nccc(Oc3ccc(NC(=S)NC(=O)Cc4ccc(C)cc4)cc3)c2cc1OC` [Example 168, 1-[4-(6,7-dimethoxyquinolin-4-yloxy)phenyl]-3-(2-p-tolylacetyl)thiourea] showed an IC50 of 306 nM.

In the case of `COc1cc2nccc(Oc3ccc(NC(=S)NC(=O)CCCC(C)C)cc3)c2cc1OC` [Example 177, 1-[4-(6,7-dimethoxyquinolin-4-yloxy)phenyl]-3-(5-methyl-hexanoyl)thiourea], half-maximal inhibition (IC50) required 267 nM. Compound `COc1cc2nccc(Oc3ccc(NC(=O)NC(=O)Cc4ccsc4)cc3F)c2cc1OC` [Example 20, 1-[4-(6,7-dimethoxyquinolin-4-yloxy)-3-fluoro-phenyl]-3-(2-thiophen-3-ylacetyl)urea] displayed an IC50 of 31.8 nM. Turning to `COc1cc2nccc(Oc3ccc(NC(=O)NC(=O)c4ccccc4Cl)c(F)c3)c2cc1OC` [Example 107, 1-(2-chloro-benzoyl)-3-[4-(6,7-dimethoxy-quinolin-4-yloxy)-2-fluorophenyl]urea], the midpoint of inhibition, the IC50, lay at 345 nM. This IC50 lies about 11-fold higher than the previous one. In turn, `COc1cc2c(Oc3ccc(NC(=O)NC(=O)Cc4ccccc4)cc3F)ccnc2cc1OCCCN1CCCC1` [Example 292, 1-{3-Fluoro-4-[6-methoxy-7-(3-pyrrolidin-1-yl-propoxy)-quinolin-4-yloxy]-phenyl}-3-phenylacetyl-urea] showed an IC50 of 20.3 nM. `COc1cc2nccc(Oc3ccc(NC(=O)CC(=O)Nc4ccc(F)cc4F)c(C)c3)c2cc1OC` [Example 223, N-(2,4-difluorophenyl)-N′-[4-(6,7-dimethoxy-quinolin-4-yloxy)-2-methylphenyl]malonamide]: it took 268 nM to reach half-maximal inhibition (IC50).

Regarding `COc1cc2nccc(Oc3ccc(NC(=O)NC(=O)CN4CCCC4)cc3Cl)c2cc1OC` [Example 111, 1-[3-chloro-4-(6,7-dimethoxyquinolin-4-yloxy)phenyl]-3-(2-pyrrolidin-1-ylacetyl)urea], the IC50 stood at 1810 nM.

Take `COc1cc2nccc(Oc3ccc(NC(=O)NC(=O)Cc4cccc(F)c4)c(F)c3)c2cc1OC` [Example 36, 1-[4-(6,7-dimethoxyquinolin-4-yloxy)-2-fluoro-phenyl]-3-[2-(3-fluorophenyl)acetyl]urea]: the midpoint of inhibition, the IC50, lay at 198 nM. For the compound `COc1cc2nccc(Oc3ccc(NC(=S)NC(=O)CC4C5CCC4CC5)cc3F)c2cc1OC` (stereo not drawn) [Example 90, 1-(2-bicyclo[2.2.1]hepto-7-ylacetyl)-3-[4-(6,7-dimethoxyquinolin-4-yloxy)-3-fluorophenyl]thiourea], the IC50 is 28.1 nM. The compound `COc1cc2nccc(Oc3ccc(NC(=S)NC(=O)Cc4cccc(Cl)c4)cc3Cl)c2cc1OC` [Example 174, 1-[3-chloro-4-(6,7-dimethoxyquinolin-4-yloxy)phenyl]-3-[2-(3-chlorophenyl)acetyl]thiourea] came in with a half-inhibitory concentration (IC50) of 252 nM. In turn, `COc1cc2c(Oc3ccc(NC(=O)NC(=O)Cc4ccccc4)cc3F)ccnc2cc1OCCCN1CCN(C)CC1` [Example 53, 1-(3-fluoro-4-{6-methoxy-7-[3-(4-methyl-piperazin-1-yl)-propoxy]quinolin-4-yloxy}phenyl)-3-phenylacetylurea] had an IC50 of 37.4 nM. On to `COc1cccc(CC(=O)NC(=S)Nc2ccc(Oc3ccnc4cc(OC)c(OC)cc34)cc2F)c1` [Example 185, 1-[4-(6,7-dimethoxyquinolin-4-yloxy)-2-fluorophenyl]-3-[2-(3-methoxyphenyl)acetyl]thiourea], for which the IC50 worked out at 248 nM.

Take `CCN(CC)CC(=O)NC(=O)Nc1ccc(Oc2ccnc3cc(OC)c(OC)cc23)c(Cl)c1` [Example 110, 1-[3-chloro-4-(6,7-dimethoxyquinolin-4-yloxy)phenyl]-3-(2-diethylaminoacetyl)urea]: the IC50 is 2380 nM. `COc1cc2nccc(Oc3ccc(NC(=O)NC(=O)Nc4ccc(C)cn4)cc3)c2cc1OC` [Example 235, N-(5-methyl-2-pyridyl)-({[4-(6,7-dimethoxy-quinolin-4-yloxy)anilino]carbonyl}amino)methanamide]: the half-maximal inhibitory concentration (IC50) came to 215 nM. Against the preceding compound, the IC50 is about 11-fold lower. Consider `COc1cc2nccc(Oc3ccc(NC(=O)CC(=O)NC4CCCCC4)cc3)c2cc1OC` [Example 217, N-cyclohexyl-N′-[4-(6,7-dimethoxyquinolin-4-yloxy)phenyl]malonamide], for which the midpoint of inhibition, the IC50, lay at 333 nM. Turning to `COc1cc2nccc(Oc3ccc(NC(=O)NC(=O)Nc4cccc5ncccc45)cc3)c2cc1OC` [Example 262, N-(5-quinolyl)-({[4-(6,7-dimethoxyquinolin-4-yloxy)anilino]carbonyl}amino)methanamide], the concentration for half-maximal inhibition (IC50) was 269 nM. Consider `COc1cc2nccc(Oc3ccc(NC(=O)NC(=O)Nc4ccccc4C(F)(F)F)cc3)c2cc1OC` [Example 240, N-[2-(trifluoromethyl)phenyl]-({[4-(6,7-dimethoxyquinolin-4-yloxy)anilino]carbonyl}amino)methan-amide], for which the IC50 is 2740 nM. With `COc1cc2nccc(Oc3ccc(NC(=O)CC(=O)NCc4ccccc4)cc3)c2cc1OC` [Example 215, N-benzyl-N′-[4-(6,7-dimethoxyquinolin-4-yloxy)phenyl]malonamide], inhibition was half-maximal at 1980 nM (IC50). To `COc1cc2nccc(Oc3ccc(NC(=S)NC(=O)Cc4ccccc4F)cc3F)c2cc1OC` [Example 81, 1-[4-(6,7-dimethoxyquinolin-4-yloxy)-3-fluoro-phenyl]-3-[2-(2-fluorophenyl)acetyl]thiourea] belongs 27.7 nM.
